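Grown in 96-well plates, cells were treated for 48 hours with each compound at five concentrations. Insufficient inhibition: endpoint recorded as highest concentration tested. At the GI50, growth is halved.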 Activity calls are given as the source filed them. No stated cut-off is given here; in the data, active = GI50 up to about 1.1 µM and inactive = higher.
How the values were obtained:
Assay in all cases: DTP human tumour cell line panel, 48 h
786-0 = tested on: 786-0
A498 = tested on: A498
A549 = tested on: A549
ACHN = tested on: ACHN
CAKI-1 = tested on: CAKI-1
CCRF-CEM = tested on: CCRF-CEM
COLO 205 = tested on: COLO 205
DLD-1 = tested on: DLD-1
DMS-114 = tested on: DMS-114
DMS-273 = tested on: DMS-273
EKVX = tested on: EKVX
HCC 2998 = tested on: HCC 2998
HCT-116 = tested on: HCT-116
HCT-15 = tested on: HCT-15
HL-60 = tested on: HL-60
HOP-18 = tested on: HOP-18
HOP-62 = tested on: HOP-62
HOP-92 = tested on: HOP-92
HT-29 = tested on: HT-29
IGROV-1 = tested on: IGROV-1
K562 = tested on: K562
KM-20L2 = tested on: KM-20L2
KM12 = tested on: KM12
LOX IMVI = tested on: LOX IMVI
LXFL 529 = tested on: LXFL 529
M14 = tested on: M14
M19-MEL = tested on: M19-MEL
MOLT-4 = tested on: MOLT-4
Malme-3M = tested on: Malme-3M
NCI-H226 = tested on: NCI-H226
NCI-H23 = tested on: NCI-H23
NCI-H460 = tested on: NCI-H460
NCI-H522 = tested on: NCI-H522
OVCAR-3 = tested on: OVCAR-3
OVCAR-4 = tested on: OVCAR-4
OVCAR-5 = tested on: OVCAR-5
OVCAR-8 = tested on: OVCAR-8
RPMI-8226 = tested on: RPMI-8226
RXF 393 = tested on: RXF 393
RXF 631 = tested on: RXF 631
SF-268 = tested on: SF-268
SF-295 = tested on: SF-295
SF-539 = tested on: SF-539
SK-MEL-28 = tested on: SK-MEL-28
SK-MEL-2 = tested on: SK-MEL-2
SK-MEL-5 = tested on: SK-MEL-5
SK-OV-3 = tested on: SK-OV-3
SN12C = tested on: SN12C
SNB-19 = tested on: SNB-19
SNB-75 = tested on: SNB-75
SNB-78 = tested on: SNB-78
SR = tested on: SR
SW-620 = tested on: SW-620
TK-10 = tested on: TK-10
U-251 = tested on: U-251
UACC-257 = tested on: UACC-257
UACC-62 = tested on: UACC-62
UO-31 = tested on: UO-31
DU-145 = tested on: DU-145

Measured: GI50

NC(=S)N1N=C2c3ccccc3CC[C@@H]2[C@@H]1c1ccccc1
3.33 µM: HCT-15
inactive: 786-0 6.89 µM | A498 13.2 µM | A549 8.59 µM | ACHN 7.94 µM | CAKI-1 5.01 µM | CCRF-CEM 3.24 µM | COLO 205 3.72 µM | DLD-1 6.5 µM | DMS-114 2.45 µM | DMS-273 2.19 µM | EKVX 16.3 µM | HCC 2998 6.78 µM | HCT-116 5.48 µM | HL-60 2.86 µM | HOP-18 20.8 µM | HOP-62 5.43 µM | HOP-92 11.2 µM | HT-29 3.15 µM | IGROV-1 12.6 µM | K562 2 µM | KM-20L2 4.22 µM | KM12 4.27 µM | LOX IMVI 5.86 µM | LXFL 529 8.18 µM | M14 4.4 µM | M19-MEL 4.97 µM | MOLT-4 4.05 µM | Malme-3M 5.4 µM | NCI-H226 4.65 µM | NCI-H23 4.68 µM | NCI-H460 5.42 µM | NCI-H522 1.5 µM | OVCAR-3 2.92 µM | OVCAR-4 23.8 µM | OVCAR-5 24.3 µM | OVCAR-8 9.75 µM | RPMI-8226 5.61 µM | RXF 393 4.95 µM | RXF 631 7.85 µM | SF-268 10.2 µM | SF-295 3.13 µM | SF-539 4.88 µM | SK-MEL-28 9.84 µM | SK-MEL-2 5.92 µM | SK-MEL-5 3.82 µM | SK-OV-3 9.73 µM | SN12C 5.05 µM | SNB-19 5.77 µM | SNB-75 3.62 µM | SNB-78 28.1 µM | SR 1.47 µM | SW-620 3.84 µM | TK-10 16.8 µM | U-251 3.98 µM | UACC-257 9.29 µM | UACC-62 4.74 µM | UO-31 14.2 µM

O=C1CC(O)C=C1Nc1ccc(Cl)cc1 (centres undefined)
active: KM-20L2 0.708 µM | UACC-62 0.879 µM
inactive: 786-0 58.2 µM | A498 13.8 µM | A549 5.81 µM | ACHN 6.98 µM | CAKI-1 10.5 µM | CCRF-CEM 11.4 µM | COLO 205 9.95 µM | DLD-1 22.3 µM | DMS-114 26.4 µM | DMS-273 13.1 µM | EKVX 27.7 µM | HCC 2998 12.1 µM | HCT-116 30.6 µM | HL-60 13.1 µM | HOP-18 29.4 µM | HOP-62 79.6 µM | HOP-92 49.1 µM | HT-29 13.7 µM | IGROV-1 43.1 µM | K562 4.4 µM | KM12 13.4 µM | LOX IMVI 25.4 µM | LXFL 529 6.76 µM | M14 10.3 µM | M19-MEL 25.2 µM | MOLT-4 16.4 µM | Malme-3M 59.8 µM | NCI-H226 > 100 µM | NCI-H23 29 µM | NCI-H460 23.1 µM | NCI-H522 11.2 µM | OVCAR-3 71.6 µM | OVCAR-4 60.1 µM | OVCAR-5 90.8 µM | OVCAR-8 49.2 µM | RXF 393 40.5 µM | RXF 631 31.4 µM | SF-268 62.4 µM | SF-295 33.1 µM | SF-539 61.7 µM | SK-MEL-28 56.2 µM | SK-MEL-2 29.6 µM | SK-MEL-5 30.5 µM | SK-OV-3 > 100 µM | SN12C 62.5 µM | SNB-19 80.7 µM | SNB-75 26.5 µM | SNB-78 39.6 µM | SR 19.1 µM | SW-620 34.1 µM | TK-10 > 100 µM | U-251 49.3 µM | UACC-257 52.4 µM | UO-31 31.3 µM

C=C(CN(C)C)C(=O)c1ccccc1Cl
inactive: 786-0 19.9 µM | A498 36.8 µM | A549 > 100 µM | ACHN 17.6 µM | CAKI-1 17.1 µM | CCRF-CEM 5.7 µM | COLO 205 13.9 µM | DLD-1 17.3 µM | DMS-114 15.9 µM | DMS-273 19.6 µM | DU-145 36.4 µM | EKVX > 52.1 µM | HCC 2998 26.5 µM | HCT-116 18.4 µM | HL-60 5.5 µM | HOP-18 19.5 µM | HOP-62 > 100 µM | HOP-92 17.1 µM | HT-29 19.1 µM | IGROV-1 > 47 µM | K562 13.1 µM | KM-20L2 30.1 µM | KM12 > 47.8 µM | LOX IMVI 17.8 µM | LXFL 529 12.5 µM | M14 19 µM | M19-MEL 18.3 µM | MOLT-4 6.68 µM | Malme-3M 16.2 µM | NCI-H226 > 67.3 µM | NCI-H23 22.9 µM | NCI-H460 52.8 µM | NCI-H522 6.53 µM | OVCAR-3 19.7 µM | OVCAR-4 20.4 µM | OVCAR-5 > 43 µM | OVCAR-8 18.3 µM | RPMI-8226 17.7 µM | RXF 393 15.4 µM | RXF 631 21.2 µM | SF-268 21.9 µM | SF-295 > 65.3 µM | SF-539 24.4 µM | SK-MEL-28 7.59 µM | SK-MEL-2 18.1 µM | SK-MEL-5 24.2 µM | SK-OV-3 > 100 µM | SN12C 20.9 µM | SNB-19 63.1 µM | SNB-75 41.8 µM | SNB-78 30.4 µM | SR 10.8 µM | SW-620 13.3 µM | TK-10 21.7 µM | U-251 52.1 µM | UACC-257 18.8 µM | UACC-62 18.3 µM | UO-31 18.9 µM
17.3 µM: HCT-15

Cc1ccc(S(=O)(=O)N/N=C2\CCCCC23CCC(=O)NC3)cc1 (centres undefined)
inactive: 786-0 > 100 µM | A498 > 100 µM | A549 > 100 µM | ACHN > 100 µM | CAKI-1 > 100 µM | CCRF-CEM > 100 µM | COLO 205 > 100 µM | DLD-1 > 100 µM | DMS-114 > 100 µM | DMS-273 > 100 µM | HCC 2998 > 100 µM | HCT-116 > 100 µM | HL-60 > 100 µM | HOP-18 > 100 µM | HOP-62 > 100 µM | IGROV-1 > 100 µM | K562 > 100 µM | KM-20L2 > 100 µM | KM12 > 100 µM | LXFL 529 > 100 µM | M14 > 100 µM | M19-MEL > 100 µM | MOLT-4 > 100 µM | Malme-3M > 100 µM | NCI-H226 > 100 µM | NCI-H460 > 100 µM | NCI-H522 > 100 µM | OVCAR-3 > 100 µM | OVCAR-4 > 100 µM | OVCAR-8 > 100 µM | RPMI-8226 > 100 µM | RXF 393 > 100 µM | RXF 631 > 100 µM | SF-268 > 100 µM | SF-539 > 100 µM | SK-MEL-28 > 100 µM | SK-MEL-2 > 100 µM | SK-MEL-5 > 100 µM | SK-OV-3 > 100 µM | SN12C > 100 µM | SNB-19 > 100 µM | SNB-75 > 100 µM | SNB-78 > 100 µM | SR > 100 µM | SW-620 > 100 µM | TK-10 > 100 µM | U-251 > 100 µM | UACC-257 > 100 µM | UACC-62 > 100 µM | UO-31 > 100 µM
> 100 µM: HCT-15
